Among the data in US8865734B2 (priority 2010, dated 2014) are MIC values, retold here.

The test system of assay [1] is in vitro grown Mycobacteria (M. tuberculosis). Kind of assay: QUM: Quantification of in vitro grown Mycobacteria (in vitro growth fluorescence assay). It counts as cell-based. The settings on record: Mycobacterium tuberculosis; MIC, 80% bacterial growth inhibition; in vitro growth; read-out: QUM. The text has this:
(§1) A 120,000 small molecule compound library was screened using a validated phenotypic cell-based assay (WO2010003533A2). Active compounds from the primary screen were confirmed via dose response in the intracellular (QIM) assay and an in vitro (QUM) assay, wherein the abbreviation “QIM” stands for Quantification of Intracellular Mycobacteria and the abbreviation “QUM” stands for Quantification of in vitro grown Mycobacteria. […] The MIC is the minimum concentration of compound required to obtain 80% bacterial growth inhibition.
(§2) The imidazopyridine compounds (scaffolds Ia and Ib; see Table 1) underwent derivatization according to the methods outlined below (Schemes 1-13). Resulting derivatives were examined for inhibitory activity (MIC) using the assays described above (Example 1) and the results are summarized in Table 1.

Assay [2] relates to M. tuberculosis inside the host macrophage. Kind of assay: QIM: Quantification of Intracellular Mycobacteria (intracellular growth assay, phenotypic cell-based). The settings on record: Mycobacterium tuberculosis; MIC, 80% bacterial growth inhibition; intracellular growth; read-out: QIM.
Text: Accordingly, a phenotypic cell-based assay, suitable for high throughput screening, which allows for the search of compounds that would prevent M. tuberculosis multiplication inside the host macrophage was utilized (WO2010003533A2), overcoming many of the numerous and burdensome steps involved in previous methodologies (Arain et al., 1996).
as §1, §2

≈ marks a conversion by molar mass, not a printed value.

For the compound `Cc1nc2c(C)cccn2c1C(=O)NCc1ccccc1` [Compound 30, N-Benzyl-2,8-dimethylimidazo[1,2-a]pyridine-3-carboxamide], the MIC in assay [1] and in assay [2] was more than 20 µM throughout.
Regarding `Cc1ccn2c(C(=O)NCc3ccccc3)c(C)nc2c1` [Compound 31, N-Benzyl-2,7-dimethylimidazo[1,2-a]pyridine-3-carboxamide], the values for the MIC in assay [1] and in assay [2] were 1 to 20 µM (≈ 0.279 to 5.59 µg/mL) and less than 1 µM, respectively.
For `Cc1ccc2nc(C)c(C(=O)NCc3ccccc3)n2c1` [Compound 32, N-Benzyl-2,6-dimethylimidazo[1,2-a]pyridine-3-carboxamide] the same measures were less than 1 µM and less than 1 µM.
For `Cc1nc2cccc(C)n2c1C(=O)NCc1ccccc1` [Compound 33, N-Benzyl-2,5-dimethylimidazo[1,2-a]pyridine-3-carboxamide] the same measures were more than 20 µM and more than 20 µM.
Taken in the same sequence, the figures for `Cc1nc2ccc(F)cn2c1C(=O)NCc1ccccc1` [Compound 34, N-Benzyl-6-fluoro-2-methylimidazo[1,2-a]pyridine-3-carboxamide] were 1 to 20 µM (≈ 0.283 to 5.67 µg/mL) and 1 to 20 µM (≈ 0.283 to 5.67 µg/mL).
As to `Cc1nc2cc(C#N)ccn2c1C(=O)NCc1ccccc1` [Compound 35, N-Benzyl-7-cyano-2-methylimidazo[1,2-a]pyridine-3-carboxamide], the MIC in assay [1] and in assay [2] was more than 20 µM in each case.
Turning to `Cc1nc2ccc(C#N)cn2c1C(=O)NCc1ccccc1` [Compound 36, N-Benzyl-6-cyano-2-methylimidazo[1,2-a]pyridine-3-carboxamide], the MIC in assay [1] and in assay [2] was more than 20 µM throughout.
As for `Cc1nc2cc(-c3ccccc3)ccn2c1C(=O)NCc1ccccc1` [Compound 37, N-Benzyl-2-methyl-7-phenylimidazo[1,2-a]pyridine-3-carboxamide], the MIC in assay [1] and in assay [2] was more than 20 µM in each case.
As to `Cc1nc2ccc(-c3ccccc3)cn2c1C(=O)NCc1ccccc1` [Compound 38, N-Benzyl-2-methyl-6-phenylimidazo[1,2-a]pyridine-3-carboxamide], the MIC in assay [1] and in assay [2] was more than 20 µM each time.
For the compound `Cc1nc2c(F)cccn2c1C(=O)NCc1ccccc1` [Compound 39, N-Benzyl-8-fluoro-2-methylimidazo[1,2-a]pyridine-3-carboxamide], the MIC in assay [1] and in assay [2] was 1 to 20 µM (≈ 0.283 to 5.67 µg/mL) each time.
Regarding `Cc1nc2c(C(F)(F)F)cccn2c1C(=O)NCc1ccccc1` [Compound 40, N-Benzyl-2-methyl-8-(trifluoromethyl)imidazo[1,2-a]pyridine-3-carboxamide], the MIC in assay [1] and in assay [2] was more than 20 µM each time.
On to `COc1cccn2c(C(=O)NCc3ccccc3)c(C)nc12` [Compound 41, N-Benzyl-8-methoxy-2-methylimidazo[1,2-a]pyridine-3-carboxamide], for which the MIC in assay [1] and in assay [2] was more than 20 µM in each case.
`Cc1nc2c(C#N)cccn2c1C(=O)NCc1ccccc1` [Compound 42, N-Benzyl-8-cyano-2-methylimidazo[1,2-a]pyridine-3-carboxamide]: the MIC in assay [1] and in assay [2] was more than 20 µM each time.
Turning to `Cc1nc2c(O)cccn2c1C(=O)NCc1ccccc1` [Compound 43, N-Benzyl-8-hydroxy-2-methylimidazo[1,2-a]pyridine-3-carboxamide], the MIC in assay [1] and in assay [2] was more than 20 µM throughout.
`Cc1nc2ccc(Cl)cn2c1C(=O)NCc1ccc(-c2ccccc2)cc1` [Compound 44]: the MIC in assay [1] and in assay [2] was less than 1 µM each time.
On to `Cc1nc2cc(Cl)ccn2c1C(=O)NCc1ccc(-c2ccccc2)cc1` [Compound 45], for which the MIC in assay [1] and in assay [2] was less than 1 µM in each case.
`CCc1nc2ccccn2c1C(=O)NCc1ccccc1` [Compound 46, N-Benzyl-2-ethylimidazo[1,2-a]pyridine-3-carboxamide]: the MIC in assay [1] and in assay [2] was 1 to 20 µM (≈ 0.279 to 5.59 µg/mL) in each case.
On to `CCCc1nc2ccccn2c1C(=O)NCc1ccccc1` [Compound 48, N-Benzyl-2-propylimidazo[1,2-a]pyridine-3-carboxamide], for which the MIC is 1 to 20 µM (≈ 0.293 to 5.87 µg/mL) in assay [1] and more than 20 µM in assay [2].
For `CCCc1nc2ccccn2c1C(=O)NCc1ccc(-c2ccccc2)cc1` [Compound 49, N-(Biphenyl-4-ylmethyl)-2-propylimidazo[1,2-a]pyridine-3-carboxamide] the same measures were less than 1 µM and less than 1 µM.
On to `O=C(NCc1ccccc1)c1c(C2CC2)nc2ccccn12` [Compound 50, N-Benzyl-2-cyclopropylimidazo[1,2-a]pyridine-3-carboxamide], for which the MIC in assay [1] and in assay [2] was 1 to 20 µM (≈ 0.291 to 5.83 µg/mL) in each case.
For the compound `CC(C)c1nc2ccccn2c1C(=O)NCc1ccccc1` [Compound 51, N-Benzyl-2-isopropylimidazo[1,2-a]pyridine-3-carboxamide], the MIC in assay [1] and in assay [2] was more than 20 µM each time.
Take `CC(C)c1nc2ccccn2c1C(=O)NCc1ccc(-c2ccccc2)cc1` [Compound 52, N-(Biphenyl-4-ylmethyl)-2-isopropylimidazo[1,2-a]pyridine-3-carboxamide]: the MIC in assay [1] and in assay [2] was 1 to 20 µM (≈ 0.369 to 7.39 µg/mL) throughout.
In the case of `O=C(NCc1ccccc1)c1c(-c2ccccc2)nc2ccccn12` [Compound 53, N-Benzyl-2-phenylimidazo[1,2-a]pyridine-3-carboxamide], the MIC in assay [1] and in assay [2] was more than 20 µM throughout.
On to `CCc1nc2ccccn2c1C(=O)NCc1ccc(C(C)(C)C)cc1` [Compound 55, N-(4-tert-Butylbenzyl)-2-ethylimidazo[1,2-a]pyridine-3-carboxamide], for which the MIC in assay [1] and in assay [2] was less than 1 µM in each case.
In the case of `CCc1nc2ccccn2c1C(=O)NCc1ccc2c(ccn2C)c1` [Compound 56, 2-Ethyl-N-((1-methyl-1H-indol-5-yl)methyl)imidazo[1,2-a]pyridine-3-carboxamide], the MIC in assay [1] and in assay [2] was less than 1 µM throughout.
As for `CCc1nc2ccccn2c1C(=O)NCc1ccc(OC(F)(F)F)cc1` [Compound 57, 2-Ethyl-N-(4-(trifluoromethoxy)benzyl)imidazo[1,2-a]pyridine-3-carboxamide], the MIC in assay [1] and in assay [2] was less than 1 µM throughout.
As to `CCc1nc2ccccn2c1C(=O)NCc1ccc2ccn(C)c2c1` [Compound 58, 2-Ethyl-N-((1-methyl-1H-indol-6-yl)methyl)imidazo[1,2-a]pyridine-3-carboxamide], the MIC in assay [1] and in assay [2] was 1 to 20 µM (≈ 0.332 to 6.65 µg/mL) in each case.
In the case of `CCc1nc2ccccn2c1C(=O)NCc1ccc(OC(C)C)cc1` [Compound 60, 2-Ethyl-N-(4-isopropoxybenzyl)imidazo[1,2-a]pyridine-3-carboxamide], the MIC in assay [1] and in assay [2] was less than 1 µM in each case.
For `CCc1nc2ccccn2c1C(=O)NCc1ccc(OCC(C)C)cc1` [Compound 61, 2-Ethyl-N-(4-isobutoxybenzyl)imidazo[1,2-a]pyridine-3-carboxamide], the MIC in assay [1] and in assay [2] was less than 1 µM each time.
Turning to `CCc1nc2ccc(C)cn2c1C(=O)NCc1ccc(-c2ccccc2)cc1` [Compound 62, N-(Biphenyl-4-ylmethyl)-2-ethyl-6-methylimidazo[1,2-a]pyridine-3-carboxamide], the MIC in assay [1] and in assay [2] was less than 1 µM throughout.
On to `CCc1nc2ccc(C)cn2c1C(=O)NCc1ccc(Oc2ccccc2)cc1` [Compound 63, 2-Ethyl-6-methyl-N-(4-phenoxybenzyl)imidazo[1,2-a]pyridine-3-carboxamide], for which the MIC in assay [1] and in assay [2] was less than 1 µM each time.
For `CCc1nc2ccc(C)cn2c1C(=O)NCc1ccc(C(C)(C)C)cc1` [Compound 64, N-(4-tert-Butylbenzyl)-2-ethyl-6-methylimidazo[1,2-a]pyridine-3-carboxamide], the MIC in assay [1] and in assay [2] was less than 1 µM each time.
As to `CCc1nc2ccc(C)cn2c1C(=O)NCc1ccc(OC(F)(F)F)cc1` [Compound 65, 2-Ethyl-6-methyl-N-(4-(trifluoromethoxy)benzyl)imidazo[1,2-a]pyridine-3-carboxamide], the MIC in assay [1] and in assay [2] was less than 1 µM in each case.
In the case of `CCc1nc2ccc(C)cn2c1C(=O)NCc1ccc2c(ccn2C)c1` [Compound 66, 2-Ethyl-6-methyl-N-((1-methyl-1H-indol-5-yl)methyl)imidazo[1,2-a]pyridine-3-carboxamide], the MIC in assay [1] and in assay [2] was less than 1 µM throughout.
As for `CCc1nc2ccc(C)cn2c1C(=O)NCc1ccc2ccn(C)c2c1` [Compound 67, 2-Ethyl-6-methyl-N-((1-methyl-1H-indol-6-yl)methyl)imidazo[1,2-a]pyridine-3-carboxamide], the MIC in assay [1] and in assay [2] was less than 1 µM in each case.
Regarding `CCc1nc2ccc(Cl)cn2c1C(=O)NCc1ccc(Cl)cc1` [Compound 70, 6-Chloro-N-(4-chlorobenzyl)-2-ethylimidazo[1,2-a]pyridine-3-carboxamide], the MIC in assay [1] and in assay [2] was less than 1 µM throughout.
In the case of `CCc1nc2ccc(Cl)cn2c1C(=O)NCc1ccc(Oc2ccccc2)cc1` [Compound 71], the MIC in assay [1] and in assay [2] was less than 1 µM in each case.
In the case of `CCc1nc2ccc(Cl)cn2c1C(=O)NCc1ccc(OC(F)(F)F)cc1` [Compound 72], the MIC in assay [1] and in assay [2] was less than 1 µM each time.
As to `CCc1nc2ccc(Cl)cn2c1C(=O)NCc1ccc(C(C)(C)C)cc1` [Compound 73], the MIC in assay [1] and in assay [2] was less than 1 µM in each case.
